# Laboratory results as given in the METLIN SMRT retention time set (Domingo-Almenara et al. 2019).
# Test: gradient 5% acetonitrile 3 min, to 50% in 2 min, to 85% in 15 min, held 3 min, 100 µL/min
# Details: column: Zorbax Extend-C18 2.1 x 50 mm; eluents: water / acetonitrile, 0.1% formic acid
# In short: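 In both positive and negative ionization mode, a quadrupole time-of-flight mass spectrometer coupled to HPLC analyzed pure standards run in mixtures of ~100 molecules. The Zorbax Extend-C18 column (2.1 × 50 mm, 1.8 μm) was operated at 100 μL/min with water and acetonitrile, each containing 0.1% formic acid. The dead volume was 40 μL and the dwell volume 900 μL. Retention time came from adduct peaks that were computationally picked and individually inspected by hand.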
row,Structure (SMILES),RP-LC retention time [s]
1,COc1ccc(-c2ncc3c(n2)CCN(S(=O)(=O)c2ccc(C)cc2)C3)cc1,1050
2,Cc1sc2ccn(Cc3ccc(F)cc3)c(=O)c2c1C(=O)NCCCN1CCOCC1,629
3,CCN(CC)c1nc(C(=O)Nc2ccccc2OC)nc2nc(C)cc(C)c12,732
4,Cc1ccccc1Nc1c(-c2ccc(Cl)cc2)nc2ccc(Br)cn12,1090
5,Cc1ccc(NC(=O)c2cn3c(n2)CCCC3)cc1,606
6,COc1ccc(-c2nnc(COc3ccc(NC(=O)c4cccnc4SC)cc3)o2)cc1,893
7,COc1ccc2c(c1)C1(CCN(C(=O)C(C)(C)C)C1)C(=O)N2C (stereo not given),764
8,CC(CCc1ccccc1)NC(=O)CCC(=O)N1CCc2c(c(C(=O)N3CCOCC3)nn2C)C1 (stereo not given),679
9,O=C(CC(=O)Nc1ccc(F)cc1Cl)Nc1ccc2nc3n(c(=O)c2c1)CCCCC3,814
10,Cc1csc(-c2cc(S(=O)(=O)NCCN3CCCC3)cn2CC(=O)N2CCCCC2)n1,649
11,CCc1ccc(-c2ccc(=O)n(CCc3nc(-c4cccc(C)c4)no3)n2)cc1,1180
12,Cc1ccc(C)c(-c2cc(C(=O)N3CCN(C)CC3)[nH]n2)c1,621
13,Cc1ccc(/C=C/C(=O)N2CCC(c3cc(N)on3)CC2)cc1,751
14,COc1ccc(-c2cn3ccn(-c4ccc(F)cc4)c(=O)c3n2)cc1,776
15,CCOC(=O)c1cnc2nc(C)ccc2c1Nc1ccc(Cl)cc1F,758
16,COc1ccc(CC(=O)N2CCC(c3cc(N)on3)CC2)cc1,662
17,COc1ccc(CN2C[C@@H]3C(=O)N(CCCN4CCCC4=O)C(=O)[C@@H]3C2)cc1OC,575
18,O=C(Cc1ccc(F)cc1)NCCCn1cccc1,746
19,Cc1nc(-c2ccc(-c3noc(C(NS(=O)(=O)c4ccccc4)C(C)C)n3)cc2)cs1 (stereo not given),1120
20,CCOc1ccc(-c2nc(CN3CCN(C(=O)NC(C)C)CC3)c(C)o2)cc1,656

row,Structure (SMILES),RP-LC retention time [s]
1,CC1CCc2onc(C(=O)N(C)Cc3ccccc3)c2C1 (stereo not given),1020
2,O=C(CN1CCN(Cc2ccc(F)cc2)C1=O)NCc1ccc(F)cc1Cl,844
3,Cc1oc(-c2[nH]ncc2C(=O)N2CCCC2)cc1S(=O)(=O)NCCC(C)C,736
4,COc1ccccc1CNC(=O)CN1CCc2[nH]c3c(C)c(Cl)ccc3c(=O)c2C1,649
5,Cc1ccc(-n2nc(N3CCCN(C(=O)c4n[nH]c5c4CCCC5)CC3)ccc2=O)cc1,679
6,CCCN(c1ccc(F)cc1)c1nc(C(=O)OCC)nc2ccccc12,1080
7,CC(C)C(=O)n1nc(-c2ccc(Cl)cc2)nc1N,1050
8,Cc1ccc(CS(=O)(=O)N2CCC(CN3CCCCCC3)CC2)cc1C,723
9,COC1CCC12CCN(C(=O)C1CC1)CC2 (stereo not given),710
10,Cc1ccc(CNC(=O)CCc2ccc3nc(-c4ccccc4)[nH]c3c2)o1,625
11,COc1cccc(-c2noc(N3CCCCC3)n2)c1,1070
12,Cc1nc(-c2ccc(C(=O)NC3CC3)cc2)cs1,706
13,COc1ccc(CCN2CC(C(=O)N3CCN(C(C)C)CC3)CC2=O)cc1OC (stereo not given),553
14,O=C(Cn1c(=O)c2cccn2c2ccc(F)cc21)NCCCN1CCCC1=O,647
15,COc1cc(C(=O)N(Cc2ccc(N(C)C)cc2)C2CCS(=O)(=O)C2)cc(OC)c1OC (stereo not given),634
16,Cc1ccc(Cn2cc(-c3ccncc3)cc2C(=O)NCc2ccc(N(C)C)cc2)cc1,630
17,COC(=O)c1ncn2c1C(=O)N(c1cc(C)ccc1C)C(C)(C(=O)NC1CCCC1)C2 (stereo not given),718
18,Cc1cc(=O)n(Cc2cccc(F)c2)c(N2CCSCC2)n1,946
19,Cc1ccc(-c2noc(-c3nc(Cc4ccc(F)cc4)no3)n2)cc1,1180
20,CC(=O)N1CCc2cc(N3CC(C(=O)NCc4ccc(C(F)(F)F)cc4)CC3=O)ccc21 (stereo not given),748

row,Structure (SMILES),RP-LC retention time [s]
1,CCc1noc(NC(C)=O)c1-c1ccc(OC)c(S(=O)(=O)Nc2cccc(F)c2)c1,794
2,COc1ccccc1NC(=O)CN1C(=O)NC2(CCCCC2)C1=O,760
3,COC(=O)c1ccc(NC(=O)c2[nH]c3cc(C)sc3c2CN(C)C)cc1,670
4,CCS(=O)(=O)N1CCCc2cc(C(=O)NCC3CCCO3)ccc21 (stereo not given),708
5,Cc1cc(F)cc2c(=O)c3c([nH]c12)CCN(CC(=O)Nc1cccc(F)c1)C3,620
6,Cc1noc([C@@H]2CC(F)(F)CN2C(=O)c2ocnc2C)n1,685
7,Cc1ccc(N2CC(NC(=O)NCc3ccco3)CC2=O)cc1C (stereo not given),682
8,COc1ccc(Cc2nnc3sc(-c4ccc(N(C)C)cc4)nn23)cc1,1090
9,NC(=O)c1c(N)c(C(=O)c2cccc([N+](=O)[O-])c2)n2ccccc12,649
10,CCOC(=O)c1c(S(=O)(=O)N2CCC(C(=O)Nc3cccc(C)c3)CC2)c(C)n(C)c1C,875
11,CCNC(=O)CCc1nc2ccccc2n(CC(=O)Nc2ccc(OCC)cc2)c1=O,775
12,COc1ccc(-c2ccc(/C=C3/SC(N4CCCCC4)=NC3=O)o2)cc1,1020
13,CCc1ccc(N2CC(c3noc(-c4ccc(-c5ccccc5)cc4)n3)CC2=O)cc1 (stereo not given),1340
14,O=C(Nc1ccc([N+](=O)[O-])cc1Cl)c1cc(Cl)ccc1O,1130
15,Cc1nc(OCC(=O)Nc2ccccc2Br)c2ccccc2n1,745
16,CCCNC(=O)NC1CCN(c2nc3ccccc3n(C)c2=O)CC1,715
17,Cc1ccc(NC(=O)N(C)CCc2noc(COc3ccc(F)cc3)n2)cc1,926
18,O=C([C@@H]1C[C@H](F)CN1C(=O)Nc1ccc(Br)cc1)N1CCCCC1,725

# The next lines start with the values.
row,RP-LC retention time [s],Structure (SMILES)
1,617,Cc1cc(N2CCN(C(=O)Nc3ccccc3F)CC2)nc(N2CCOCC2)n1
2,1100,O=C(CSC1=N/C(=C/c2ccc3c(c2)OCO3)C(=O)N1c1ccccc1)c1ccccc1
3,615,CS(=O)(=O)N(Cc1cccnc1)C1CN(C(=O)c2ccc3ccccc3n2)C1
4,608,Cc1oc(-c2ccc(C(=O)N3CCN(C)CC3)cc2)nc1CS(=O)(=O)c1ccccc1
5,622,Cn1c(C2CCN(C(=O)Nc3ccccc3F)CC2)cc(=O)n2nccc12
6,1100,CCCN1C(=O)c2cc(S(=O)(=O)Nc3ccc(F)c(C)c3)ccc2Oc2cccnc21
7,696,Cn1cc(CCNC(=O)Cc2ccc(Cl)cc2)c2cccnc21
8,1210,O=C(NCCc1ccccc1)c1cc2sccc2n1Cc1ccc(Cl)cc1
9,1030,O=C(c1cc(F)ccc1F)N1CCCC1c1nc(-c2ccc(F)cc2)no1 (stereo not given)
10,974,CCC(C)C(=O)N1CCCN(C2=NS(=O)(=O)C(c3ccc(C(C)C)cc3)=C2C)CC1 (stereo not given)
11,675,CCCn1c(CCNC(=O)c2ccc(F)cc2F)nc2cccnc21
12,821,O=C(C1=CN(c2ccccc2)c2ccccc2S1(=O)=O)N1CCCCC1
13,554,O=C(c1cccc2ccccc12)N1CCN(c2ccc(Nc3ccncc3)nn2)CC1
14,593,O=C(NCC(c1ccc2c(c1)OCO2)N1CCN(c2ccccc2F)CC1)c1cnccn1 (stereo not given)
15,841,Cc1ccc(C(=O)NCCc2c[nH]c3ccc(F)cc23)cc1
16,619,O=C(Cn1nc2n(c1=O)CCCC2)NCc1ccc2c(c1)OCO2

row,RP-LC retention time [s],Structure (SMILES)
1,604,O=C(C1CCN(c2ccc3nncn3n2)CC1)N1CCN(c2ncccn2)CC1
2,922,Cc1cc(C)cc(Oc2nccn3c(=O)n(CC(=O)Nc4ccccc4)nc23)c1
3,667,COc1cn(C)c(C(=O)NCCC(c2ccccc2)c2ccccc2)cc1=O
4,760,CCc1cc(=O)n(CC(=O)Nc2ccc(F)cc2C)c(N2CCOCC2)n1
5,746,O=C(NCc1ccc(C(F)(F)F)cc1)c1cn2ccccc2n1
6,669,NS(=O)(=O)c1ccc(CCNC(=O)Cc2cc(-c3cccs3)on2)cc1
7,809,O=C(c1ccc(Cl)cc1)N1CCN(c2cc(-c3cccs3)[nH]n2)CC1
8,591,CCNC(=O)C1CCN(c2nc3ccc(-c4cccnc4)nc3s2)CC1
9,612,Cc1cc(N2CCN(C(=O)c3ccccc3)CC2)nc(N2CCOCC2)n1
10,922,Cn1nc(-c2nnc(-c3ccccc3F)o2)c2c1CCN(S(=O)(=O)c1ccc(F)cc1F)C2
11,710,O=C(O)c1ccc(N2CCCC2)c(NC(=O)c2cccs2)c1
12,776,Brc1ccc(-c2ccc(CNCc3ccc4c(c3)OCO4)o2)cc1
13,522,O=C(NCc1ccccn1)C1(CCO)CCN(c2ncccn2)C1 (stereo not given)
14,635,COc1ccc(N2CCN(C(=O)Cn3ncc4c(c3=O)N(C)C(=O)CS4)CC2)cc1
15,817,c1ccc(-c2nc(CSc3cc(N4CCOCC4)ncn3)cs2)cc1
16,762,O=C(NCc1ccc(F)cc1F)C1CCCN(c2ncnc3c2oc2ccccc23)C1 (stereo not given)
